Drawing on US10004225B2, “Wearable insect repelling patch” (S. C. Johnson & Son, Inc., priority 2005, dated 2018), this text covers repellency and Vapor pressure for one compound.

One data set has as its system mosquitoes. Kind of data set: Additional field tests with FIG. 4 type patches, wrist bands and ankle bands. The data set is classed as in vivo. The following applies: 7.5 cm×7.5 cm patches, 10 mg each, two or four patches, one or two wrist bands, five to sixty minute monitoring, heavy mosquito populations. The method, then:
We then tried some additional field tests with respect to mosquitoes using FIG. 4 type patches. Patches were made be adhering a multi-layer non-woven cloth made of rayon, polyester, polypropylene, and polyethylene fibers 30 to a multi-laminate foil film 34 with strips of 3M double facing tape 32. The cloth was 7.5 cm×7.5 cm in top view, and the dosing included for each patch 10 mg of metofluthrin dissolved in 2.53 ml of acetone.
We then sealed the patches in towelette pouches for storage prior to use. When the patch was to be used, we opened the pouch by tearing it open, removed the patch, peeled off the multi-laminate foil, and attached the cloth/tape structure to the specified locations.
We tested the use of two patches, the use of four patches, the use of one or two wrist bands, and the use of one or two ankle bands. All achieved over 50% repellency throughout a five minute to sixty minute monitoring under conditions of heavy mosquito populations.

For data set [1] the following is noted: @ 25° C.; cited from earlier work.

Consider `CC=C[C@@H]1[C@@H](C(=O)OCc2c(F)c(F)c(COC)c(F)c2F)C1(C)C` (racemic) [metofluthrin, 2,3,5,6-tetrafluoro-4-methoxymethylbenzyl (EZ)-(1RS,3RS)-2,2-dimethyl-3-(prop-1-enyl)-cyclopropanecarboxylate], for which the repellency entry in the data set on mosquitoes is listed as “over 50%”. Further, the Vapor pressure in data set [1] is 3.4 × 10^−6 mmHg @.
